Measurements taken from patent publication US20250092043A1, “Kinase Inhibitors and Degraders” (Incyte Corporation, priority 2023, published 2025).

molecular target: T1, JAK2 (Homo sapiens, UniProt O60674, V617F); assay: Western blot quantitation of JAK2 degradation in SET2 cells; type: cell-based; conditions: 5 μM compound, 8 hours treatment, western blot densitometry vs. DMSO vehicle
T1 construct: their effect on JAK2 protein degradation in SET2 cells; host or cells: SET2 cells (human essential thrombocythemia)
Procedure: Example E. Western Blot Analysis of JAK2 Dependent SET2 Cells Treated with Compounds of the Present Disclosure
SET2 cells (DSMZ, catalog number ACC 608) are isolated from a person with human essential thrombocythemia and carry the JAK2 V617F mutation.
SET2 cells were cultured in RPMI culture medium (Gibco, catalog number 11875085) supplemented with 1% penicillin-streptomycin-glutamine (Thermo Fisher Scientific, catalog number 10378016) and 20% fetal bovine serum (Gibco, catalog number 10438034). Cultured cells were maintained at 37° C., 5% CO2 in the incubator.
Approximately 1,000,000 cells/well were added in 6-well plate containing 1.5 ml culture media with specified concentrations of compounds of the present disclosure or DMSO control. Cells were treated with concentrations of 10 uM, 5 uM, 1 uM, and 0.5 uM. Proteasome inhibitor MG-132 (Cell signaling, catalog number 2194) was added at 20 uM to an additional 10 uM compound treatment. The treatment period was 8 hours. After 8 hours, cells were collected in 1.5 mL microcentrifuge tubes. Tubes were centrifuged at 1500 rpm for 5 min. Supernatant was aspirated and samples were washed with 1 mL of cold PBS. The samples were centrifuged again at 1500 rpm for 5 min, supernatant was aspirated. The sample pellets were lysed using 150 μL of 1× lysing buffer (Cell Signaling Technologies—catalog number 9803S) supplemented with 1× Halt™ Protease and Phosphatase Inhibitor Cocktail (Thermo Fisher Scientific—catalog number 78447). Using Pierce™ BCA Protein Assay Kit (Thermo Fisher Scientific—catalog number 23225), protein concentration of the samples were quantitated. After normalizing sample concentration to approximately 20 ug/well, samples were loaded onto 4-12% Tris-glycine gels. Gels were transferred to nitrocellulose membranes using iBlot 2 Dry Blotting System and iBlot™ 2 Transfer Stacks, nitrocellulose (Thermo Fisher Scientific—catalog number IB23001). Following transfer, membranes were blocked with StartingBlock (Thermo Fisher Scientific—catalog number 37543). After 1 hour of blocking membranes, they were probed for JAK2, pSTAT5, STAT5, CRBN, and GAPDH (Cell Signaling—catalog numbers 3230, 4322, 25656, 71810, and 5174 respectively).
Compounds of the present disclosure were screened at various concentrations to determine their effect on JAK2 protein degradation in SET2 cells, using methods as described above. DMSO was used as the vehicle control with no PROTAC® added. Co-administration of 20 μM of the proteasome inhibitor MG-132 with the PROTAC® compound at its highest concentration (i.e., 5 or 10 μM) tested was conducted to support the hypothesis that the degradation was driven by the ubiquitin-proteosome system (UPS). Degradation was evaluated by western blot densitometry quantitation using the FluorChem M instrument software to analyze the intensity of the JAK2 band signal at various concentrations of PROTAC® compound vs. the JAK2 band signal of the DMSO vehicle. It is noted that ˜82% of JAK2 exists as the V617F mutant, with the remaining 18% of JAK2 being WT. Therefore, if the V617F mutant JAK2 is selectively degraded over the WT, the maximum degradation is ˜80%. Degradation was graded as A: […]; B: ≥40% to <60% degradation; C: ≥20% to <40% degradation, D: <20% to ≥10%; E<10%. ** refers to degradation at 0.5 μM.

T1 sequence (O60674 whole entry V617F): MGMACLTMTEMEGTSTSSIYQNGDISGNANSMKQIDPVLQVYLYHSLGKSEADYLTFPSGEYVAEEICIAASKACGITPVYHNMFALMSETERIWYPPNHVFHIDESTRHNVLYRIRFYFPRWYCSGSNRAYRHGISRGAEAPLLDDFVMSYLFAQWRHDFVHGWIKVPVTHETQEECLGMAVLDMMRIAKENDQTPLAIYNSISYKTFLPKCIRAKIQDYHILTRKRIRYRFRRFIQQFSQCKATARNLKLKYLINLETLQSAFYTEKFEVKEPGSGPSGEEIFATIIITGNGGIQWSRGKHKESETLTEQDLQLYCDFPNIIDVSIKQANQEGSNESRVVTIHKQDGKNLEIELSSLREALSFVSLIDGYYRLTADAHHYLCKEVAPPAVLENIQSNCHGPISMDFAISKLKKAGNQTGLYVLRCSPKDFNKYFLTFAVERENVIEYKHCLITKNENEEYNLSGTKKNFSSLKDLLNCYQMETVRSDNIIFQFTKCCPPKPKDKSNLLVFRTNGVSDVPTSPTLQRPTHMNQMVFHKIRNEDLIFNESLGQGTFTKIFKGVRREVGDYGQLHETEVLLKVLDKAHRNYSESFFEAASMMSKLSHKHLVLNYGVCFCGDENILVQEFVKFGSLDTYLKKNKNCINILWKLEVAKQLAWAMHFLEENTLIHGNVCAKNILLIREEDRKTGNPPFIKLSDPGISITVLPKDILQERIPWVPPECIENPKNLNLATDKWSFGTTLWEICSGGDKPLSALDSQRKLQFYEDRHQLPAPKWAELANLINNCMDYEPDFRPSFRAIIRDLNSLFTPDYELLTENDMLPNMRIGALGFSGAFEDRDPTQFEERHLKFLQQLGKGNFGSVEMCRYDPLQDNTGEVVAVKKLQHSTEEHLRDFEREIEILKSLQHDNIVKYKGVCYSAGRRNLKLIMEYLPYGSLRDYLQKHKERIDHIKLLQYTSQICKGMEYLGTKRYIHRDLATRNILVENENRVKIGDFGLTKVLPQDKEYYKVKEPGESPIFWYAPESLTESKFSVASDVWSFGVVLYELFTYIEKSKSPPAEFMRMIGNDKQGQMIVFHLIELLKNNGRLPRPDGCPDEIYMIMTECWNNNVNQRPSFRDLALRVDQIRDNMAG

SMILES	JAK2 % Degradation in SET2
COC(=O)N[C@@H]1CC[C@@H](n2c(=O)n(C)c3cnc4[nH]c(-c5ccc(C(=O)N6CCC(C(=O)N7CCN(c8cccc9c8C(=O)N(C8CCC(=O)NC8=O)C9=O)CC7)CC6)cc5)c(-c5ccc6c(cnn6C(C)C)c5)c4c32)C1 (stereo partly drawn) [Example 37, methyl ((1R,3R)-3-(7-(4-(4-(4-(2-(2,6-dioxopiperidin-3-yl)-1,3-dioxoisoindolin-4-yl)piperazine-1-carbonyl)piperidine-1-carbonyl)phenyl)-8-(1-isopropyl-1H-indazol-5-yl)-3-methyl-2-oxo-3,6-dihydroimidazo[4,5-d]pyrrolo[2,3-b]pyridin-1(2H)-yl)cyclopentyl) carbamate]	C (C: ≥20% to <40% degradation)
COC(=O)N[C@@H]1CC[C@@H](n2c(=O)n(C)c3cnc4[nH]c(-c5cnn(CC(=O)N6CCC(CN7CCN(c8cccc9c8C(=O)N(C8CCC(=O)NC8=O)C9=O)CC7)CC6)c5)c(-c5ccc6c(cnn6C(C)C)c5)c4c32)C1 (stereo partly drawn) [Example 40, methyl ((1R,3R)-3-(7-(1-(2-(4-((4-(2-(2,6-dioxopiperidin-3-yl)-1,3-dioxoisoindolin-4-yl)piperazin-1-yl)methyl)piperidin-1-yl)-2-oxoethyl)-1H-pyrazol-4-yl)-8-(1-isopropyl-1H-indazol-5-yl)-3-methyl-2-oxo-3,6-dihydroimidazo[4,5-d]pyrrolo[2,3-b]pyridin-1(2H)-yl)cyclopentyl) carbamate]	C (C: ≥20% to <40% degradation)

same assay, conditions: 10 μM compound, 8 hours treatment, western blot densitometry vs. DMSO vehicle

SMILES	JAK2 % Degradation in SET2
COC(=O)N[C@@H]1CC[C@@H](n2c(=O)n(C)c3cnc4[nH]c(-c5ccc(C(=O)NCCOCC(=O)Nc6cccc7c6CN(C6CCC(=O)NC6=O)C7=O)c(F)c5)c(-c5ccc6c(cnn6C(C)C)c5)c4c32)C1 (stereo partly drawn) [Example 24, methyl ((1R,3R)-3-(7-(4-((2-(2-((2-(2,6-dioxopiperidin-3-yl)-1-oxoisoindolin-4-yl)amino)-2-oxoethoxy)ethyl)carbamoyl)-3-fluorophenyl)-8-(1-isopropyl-1H-indazol-5-yl)-3-methyl-2-oxo-3,6-dihydroimidazo[4,5-d]pyrrolo[2,3-b]pyridin-1(2H)-yl)cyclopentyl) carbamate]	C (C: ≥20% to <40% degradation)
COC(=O)N[C@@H]1CC[C@@H](n2c(=O)n(C)c3cnc4[nH]c(-c5ccc(C(=O)N6CCC(CN7CCN(c8ccc9c(c8)CN(C8CCC(=O)NC8=O)C9=O)CC7)CC6)c(F)c5)c(-c5ccc6c(cnn6C(C)C)c5)c4c32)C1 (stereo partly drawn) [Example 36, methyl ((1R,3R)-3-(7-(4-(4-((4-(2-(2,6-dioxopiperidin-3-yl)-1-oxoisoindolin-5-yl)piperazin-1-yl)methyl)piperidine-1-carbonyl)-3-fluorophenyl)-8-(1-isopropyl-1H-indazol-5-yl)-3-methyl-2-oxo-3,6-dihydroimidazo[4,5-d]pyrrolo[2,3-b]pyridin-1(2H)-yl)cyclopentyl) carbamate]	A (A: ≥600% degradation)
COC(=O)N[C@@H]1CC[C@@H](n2c(=O)n(C)c3cnc4[nH]c(-c5ccc(C(=O)N(C)CCOCC(=O)Nc6ccc7c(c6)CN(C6CCC(=O)NC6=O)C7=O)c(F)c5)c(-c5ccc6c(cnn6C(C)C)c5)c4c32)C1 (stereo partly drawn) [Example 27, methyl ((1R,3R)-3-(7-(4-((2-(2-((2-(2,6-dioxopiperidin-3-yl)-1-oxoisoindolin-5-yl)amino)-2-oxoethoxy)ethyl)(methyl)carbamoyl)-3-fluorophenyl)-8-(1-isopropyl-1H-indazol-5-yl)-3-methyl-2-oxo-3,6-dihydroimidazo[4,5-d]pyrrolo[2,3-b]pyridin-1(2H)-yl)cyclopentyl) carbamate]	D (D: <20% to ≥10%)
CN[C@@H](C)C(=O)N[C@H](C(=O)N1C[C@@H](NC(=O)COCCOCCNC(=O)c2ccc(-c3[nH]c4ncc5c(c4c3-c3ccc4c(cnn4C(C)C)c3)n([C@@H]3CC[C@@H](NC(=O)OC)C3)c(=O)n5C)cc2F)C[C@H]1C(=O)N[C@@H]1CCCc2ccccc21)C1CCCCC1 [Example 51, Methyl((1R,3R)-3-(7-(4-((2-(2-(2-(((3S,5S)-1-((S)-2-cyclohexyl-2-((S)-2-(methylamino)propanamido)acetyl)-5-(((R)-1,2,3,4-tetrahydronaphthalen-1-yl)carbamoyl)pyrrolidin-3-yl)amino)-2-oxoethoxy)ethoxy)ethyl)carbamoyl)-3-fluorophenyl)-8-(1-isopropyl-1H-indazol-5-yl)-3-methyl-2-oxo-3,6-dihydroimidazo[4,5-d]pyrrolo[2,3-b]pyridin-1(2H)-yl)cyclopentyl)carbamate]	B (B: ≥40% to <60% degradation)
COC(=O)N[C@@H]1CC[C@@H](n2c(=O)n(C)c3cnc4[nH]c(-c5ccc(C(=O)N6CCC(C(=O)Nc7ccc8c(c7)CN(C7CCC(=O)NC7=O)C8=O)CC6)c(F)c5)c(-c5ccc6c(cnn6C(C)C)c5)c4c32)C1 (stereo partly drawn) [Example 58, Methyl((1R,3R)-3-(7-(4-(4-((2-(2,6-dioxopiperidin-3-yl)-1-oxoisoindolin-5-yl)carbamoyl)piperidine-1-carbonyl)-3-fluorophenyl)-8-(1-isopropyl-1H-indazol-5-yl)-3-methyl-2-oxo-3,6-dihydroimidazo[4,5-d]pyrrolo[2,3-b]pyridin-1(2H)-yl)cyclopentyl)carbamate]	E (E<10%)
COC(=O)N[C@@H]1CC[C@@H](n2c(=O)n(C)c3cnc4[nH]c(-c5ccc(C(=O)NCCOCCOCC(=O)N[C@H](C(=O)N6C[C@H](O)C[C@H]6C(=O)NCc6ccc(-c7scnc7C)cc6)C(C)(C)C)c(F)c5)c(-c5ccc6c(cnn6C(C)C)c5)c4c32)C1 [Example 14, methyl ((1R,3R)-3-(7-(3-fluoro-4-((2-(2-(2-(((S)-1-((2S,4R)-4-hydroxy-2-((4-(4-methylthiazol-5-yl)benzyl)carbamoyl)pyrrolidin-1-yl)-3,3-dimethyl-1-oxobutan-2-yl)amino)-2-oxoethoxy)ethoxy)ethyl)carbamoyl)phenyl)-8-(1-isopropyl-1H-indazol-5-yl)-3-methyl-2-oxo-3,6-dihydroimidazo[4,5-d]pyrrolo[2,3-b]pyridin-1(2H)-yl)cyclopentyl) carbamate]	C (C: ≥20% to <40% degradation)
COC(=O)N[C@@H]1CC[C@@H](n2c(=O)n(C)c3cnc4[nH]c(-c5ccc(C(=O)NCCOCC(=O)Nc6ccc7c(c6)CN(C6CCC(=O)NC6=O)C7=O)c(F)c5)c(-c5ccc6c(cnn6C(C)C)c5)c4c32)C1 (stereo partly drawn) [Example 17, methyl ((1R,3R)-3-(7-(4-((2-(2-((2-(2,6-dioxopiperidin-3-yl)-1-oxoisoindolin-5-yl)amino)-2-oxoethoxy)ethyl)carbamoyl)-3-fluorophenyl)-8-(1-isopropyl-1H-indazol-5-yl)-3-methyl-2-oxo-3,6-dihydroimidazo[4,5-d]pyrrolo[2,3-b]pyridin-1(2H)-yl)cyclopentyl) carbamate]	E (E<10%)
COC(=O)N[C@@H]1CC[C@@H](n2c(=O)n(C)c3cnc4[nH]c(-c5ccc(C(=O)N6CCC(CC(=O)Nc7ccc8c(c7)CN(C7CCC(=O)NC7=O)C8=O)CC6)cc5)c(-c5ccc6c(cnn6C(C)C)c5)c4c32)C1 (stereo partly drawn) [Example 61, Methyl((1R,3R)-3-(7-(4-(4-(2-((2-(2,6-dioxopiperidin-3-yl)-1-oxoisoindolin-5-yl)amino)-2-oxoethyl)piperidine-1-carbonyl)phenyl)-8-(1-isopropyl-1H-indazol-5-yl)-3-methyl-2-oxo-3,6-dihydroimidazo[4,5-d]pyrrolo[2,3-b]pyridin-1(2H)-yl)cyclopentyl)carbamate]	C (C: ≥20% to <40% degradation)
